In patent publication US20230310416A1, “SUSPENSION OF TRIAZOLE ANTIFUNGAL DRUG FOR ATOMIZER” (SHANGHAI FRONTIER HEALTH PHARMACEUTICAL TECHNOLOGY CO., LTD, priority 2020, published 2023):

System: bleomycin-induced idiopathic pulmonary fibrosis in mice
Assay: Mouse model of pulmonary fibrosis induced by bleomycin, inhalation versus oral administration
Type: in vivo, ICR mice
Settings: once a day for 22 days
Description: In order to investigate the efficacy of itraconazole suspension of the present invention by inhalation administration, a mouse model of pulmonary fibrosis induced by bleomycin 2 mg/kg/mouse was established and compared with that by oral administration.
Test animals: ICR mice: SPF grade, body weight 22-24 g, male.
Test drugs: itraconazole suspension prepared in Example 3
Model establishment: 2 mg/kg of bleomycin hydrochloride for injection was sprayed into the respiratory tract of each mouse to induce pulmonary fibrosis, 4 weeks later, a mouse pulmonary fibrosis model was established.
Animal grouping: Mice were randomly divided into 4 groups, namely a blank control group, a model group, an itraconazole inhalation group, in which 2.5 mg/kg was inhaled for 3 minutes (2.5 mg/kg Inhalation group) and an itraconazole oral group, in which 15 mg/kg was orally administrated(15 mg/kg Oral group). The drugs were administered once a day for 22 consecutive days from the fifth day after modeling.
Detecting indexes: the mice were sacrificed after administration, the trachea was separated, the left lung was ligated, the bronchoalveolar lavage (BAL) was performed, the bronchoalveolar lavage fluid (BALF) was taken for white cell count and classification count, after the lung tissue was fixed with formalin, paraffin embedding, sectioning, H & E staining and Masson’s staining were carried out. The contents of transforming growth factor (TGF- β 1), mouse type I collagen (Col I) and hydroxyproline in lung tissue in supernatant of the BALF were detected by a kit.

For `CCC(C)n1ncn(-c2ccc(N3CCN(c4ccc(OCC5COC(Cn6cncn6)(c6ccc(Cl)cc6Cl)O5)cc4)CC3)cc2)c1=O` (stereo not drawn) [itraconazole], the “Collagen deposition in lung tissue” value (2.5 mg/kg inhalation) was 62759.9±17865.8, the “Content of Col I in BALF” value (2.5 mg/kg inhalation) was 1.64 ± 0.64 ng/mL and the “Content of TGF-β1 in BALF” value (2.5 mg/kg inhalation) was 32.13 ± 25.97 pg/mL. The “Content of hydroxyproline in lung tissue” value (2.5 mg/kg inhalation) was 526.7 ±66.0 µg/g tissue, the “Number of neutrophils in BALF” value (2.5 mg/kg inhalation) was 12.08±5.85 1 × 10^4 cell/ml and the “Total number of white blood cells in BALF” value (2.5 mg/kg inhalation) was 26.13 ±5.93 1 × 10^4 cell/ml. The “Collagen deposition in lung tissue” value (15 mg/kg oral) was 166628.8±35819.8, the “Content of Col I in BALF” value (15 mg/kg oral) was 1.91 ± 0.86 ng/mL and the “Content of TGF-β1 in BALF” value (15 mg/kg oral) was 24.79 ± 12.72 pg/mL. The “Content of hydroxyproline in lung tissue” value (15 mg/kg oral) was 583.8 ±96.6 µg/g tissue, the “Number of neutrophils in BALF” value (15 mg/kg oral) was 13.71 ±7.58 1 × 10^4 cell/ml and the “Total number of white blood cells in BALF” value (15 mg/kg oral) was 29.13±10.99 1 × 10^4 cell/ml.
